According to US20190293657A1, “PEPTIDE, FLUORESCENT PROBE COMPRISING THE SAME, AND PREPARATION METHOD THEREOF” (Singulprobe Nanjing Biotechnology Co., Ltd, priority 2017, published 2019):

System: lysosome (U2OS cells)
Assay: Structural illumination microscopy (N-SIM) super-resolution imaging of lysosomes
Type: cell-based
Conditions: FIG. 8
Text: Super-resolution imaging by structural illumination microscopy: super-resolution microscope N-SIM (Nikon, Japan) was employed. The maximum excitation wavelength of Alexa Fluor 647 was 650 nm and the maximum emission wavelength was 665 nm; the maximum excitation wavelength of LysoTracker Red was 577 nm and the maximum emission wavelength of LysoTracker Red was 590 nm; the maximum excitation wavelength of Atto 565 was 563 nm and the maximum emission wavelength of Atto 565 was 592 nm; the maximum excitation wavelength of Atto 488 was 501 nm and the maximum emission wavelength was 523 nm. A sample was photographed using a 2D-SIM mode, one SIM result was calculated from 9 original images (three angles, three phases), and the exposure time of each original image was 30 ms. Considering quick movement ability of a lysosome in living cells, single-color imaging interval time was set as 1 s so as to continuously photograph cells at above 300 frames. After the capturing was completed, the average time interval among various SIM images was about 1.15 s. […]
Based on a time-lapsed SIM imaging, take the center of the lysosome as a reference, the coordinates of lysosomes were recorded using ImageJ software, and trace charts of 101 lysosomes in four U2OS cells on the confocal surface were drawn using MATLAB (FIGS. 6A-6H). […]

CN(C)CCNC(=O)CCc1ccc2n1[B-](F)(F)[N+]1=C(c3ccc[nH]3)C=CC1=C2 [LysoTracker Red]
background in structural illumination super-resolution imaging: uneven background of LysoTracker Red was very obvious
